Results published in patent US7115574B2, “System and method for support legacy operating system booting in a legacy-free system” (priority 2001, dated 2006).

What was measured:
[1] = tested on: carrageenan-induced swelling in rat paws; assay: Rat paw edema test (carrageenan); assay type: in vivo, Sprague-Dawley rats; conditions: 100 mg/kg intraperitoneal, rats
Description: A second in vivo bioassay for anti-inflammatory activity was conducted in which the action of the tripeptide (SEQ ID NO: 1) was compared to that of hydrocortisone. In this assay, the two agents were given at similar doses and tested for their independent ability to inhibit carrageenan-induced swelling in rat paws. This assay, the rat paw edema test, was conducted generally as it is typically performed in the art, for example, as described by Winter et al. (1962), Proc. Soc. Exp. Biol. Med., 111:544 or in U.S. Pat. No. 4,150,137.
Briefly, the assay was performed as follows. Each of twenty-four male Sprague-Dawley rats was assigned to one of four groups: Tripeptide treatment and controls (matched according to body weight and initial paw volume), hydrocortisone treatment and matched controls. The volume of the right rear paw of the test and control animals was determined using standard procedures and a mercury displacement volumetric technique. […] One hour later 0.5 ml of 1% lambda carrageenan in saline solution was injected into the right rear paw of the animals and the paw volume was again recorded (baseline measure). For comparison of the effects of the two treatments, paw volume of experimental animals measured at hourly intervals was expressed as a percentage of the volume change of their respective matched controls.

[2] = tested on: N9 clone of murine microglial cells; assay: cAMP accumulation in N9 microglia; assay type: cell-based; conditions: for cAMP accumulation: resting cells and cells co-incubated with LPS+IFN-γ; for concentration of strongest effect on cAMP accumulation: resting microglia, 1, 10, 50 μM tested
Description: cAMP accumulation in N9 cells was measured as previously described. […] Reactions were stopped after 3 min by aspirating supernatants, immediately adding 1 mL ethanol at −20° C. and freezing. cAMP content in the ethanol-soluble fraction was measured using an enzyme immunoassay kit (Amersham).

[3] = tested on: inflammation induced in the hind paw by kappa carrageenan; assay: Kappa carrageenan hind paw inflammation in spinal cord intact and transected mice; assay type: in vivo, BALB/c mice; conditions: for effect on carrageenan-induced paw swelling: spinal cord transected mice; for inhibition of inflammation induced in the hind paw: central administration, spinal cord intact mice
Description: Because surgical dissection of trigeminal structures that innervate the ear of the mouse is very difficult, tests to learn whether descending neural pathways are essential to the anti-inflammatory activity of centrally administered α-MSH peptides were performed in mice with inflammation induced in a hind paw. In these experiments, each animal was anesthetized with pentobarbital sodium solution as above. Baseline foot pad thickness of both hind paws was measured with a spring-loaded micrometer (Swiss Precision Instruments, Los Angeles, Calif.). Paw thickness was expressed in units of 10^−3 cm; average thickness of unstimulated paws was 171.5×10^−3 cm across shipments of animals. Kappa carrageenan (Sigma) dissolved in saline (0.05%, 20 μl) was injected (28 gauge allergy test syringe) into one footpad, and saline (20 μl) was injected into the other. For the analyses, the increase in thickness of the control saline-injected paw of each animal was subtracted from that of the carrageenan-injected paw, to eliminate the influence of mechanical injury and volume of the injected fluid. […] Treatment with the locally acting steroid reduced swelling up to 29% (average, relative to saline controls) at 4.5 hr. after carrageenan.
However, a standardized crushing of lumbar vertebrae with a hemostat (Kelly) was effective in severing the cord; no deaths were caused by this treatment. […] The experiments were limited to 4.5 hr to reduce problems of bowel and bladder dysfunction. Immediately after the 4.5 hr measurements all mice were killed with an overdose of sodium pentobarbital.
(§1) Because of the size of the experiments and the requirement for several shipments of animals over time, several experiments were performed, each with complete treatment and control groups drawn from the same shipment of mice. Omnibus analysis of variance techniques (Dynastat, Washington, D.C.) were used to test overall differences among group means. Tukey's protected t test was used to compare individual means. Probability values of <0.05 were considered significant.

[4] = tested on: N9 clone of murine microglial cells; assay: Northern blot of TNF-α and iNOS mRNA in activated microglia; assay type: cell-based; conditions: peptide prior to LPS and IFN-γ
Description: Total cellular RNA was extracted from 10^6 adherent microglial cells plated in six-well tissue culture plates (Corning). Electrophoresis of RNA samples (10 μg/lane) was performed in 1% agarose/2.2 M formaldehyde gels and the gels subsequently blotted onto nylon filters by capillary action and baked for 2 h before prehybridization. The cDNA fragments encoding murine TNF-α and mouse macrophage iNOS were ^32P-labeled using the Ready-To-Go DNA Labeling Kit (Pharmacia, Uppsala, Sweden) before hybridization of nylon filters and autoradiography. Blots were subsequently rehybridized with human glyceraldehyde-3-phosphate dehydrogenase (G-3-PDH) cDNA probe as an internal control (Clontech Laboratories, Inc., Palo Alto, Calif.).

[5] = tested on: edema caused by intradermal injection of recombinant human IL-1β in the mouse ear; assay: IL-1β-induced ear edema with centrally administered α-MSH and receptor antagonists; assay type: in vivo, BALB/c mice; conditions: α-MSH(1-13) given centrally with propranolol injected centrally
Description: See Macaluso, A., McCoy, D., Ceriani, G., Watanabe, T., Biltz, J., Catania, A., and Lipton, J. M., Anti-inflammatory Influences of a-MSH Molecules: Central Neurogenic and Peripheral Actions, 14(4), J. of Neuroscience 2377-2382 (1994). Female BALB/c mice (Simonsen Laboratories, Gilroy, Calif.), 7-8 weeks old, were housed at 23-25° C. in groups not exceeding five animals per cage [28 cm (L)×18 cm (W)×13 cm (H)]. Before the experiments they were acclimatized for not less than 1 week before experimentation to standard lighting and temperature conditions with food and water freely available.
Mice were anesthetized with 10% pentobarbital sodium solution (1 mg/mouse, 50 mg/ml, Nembutal sodium solution; Abbott Laboratories, North Chicago, Ill.). Baseline ear thickness measurements were taken with a spring-loaded micrometer (Swiss Precision Instruments, Los Angeles, Calif.). Ear thickness was expressed in centimeters and was measured at least twice at each time point. The average thickness of unstimulated ears was […]. Inflammation was induced by injecting 20 μl of recombinant human IL-1β (1500 U; Genzyme, Cambridge, Mass.) directly into the skin (intradermally) of one ear of each mouse using a 28 gauge needle (Hiltz et al., 1992). Measures of ear thickness were repeated 4 and 6 hr later, while the mice were under sodium pentobarbital anesthesia.
Several agents were administered at the time of ear challenge to pharmacologically block certain receptors: atropine (Sigma Chemical Co.; 150 μg i.p.), a muscarinic receptor blocker that acts on autonomic end-organ receptors, was chosen because of links between inflammation and modulation of pain and the finding that muscarinic antagonists increase pain threshold (Hartvig et al., 1989); phentolamine (Sigma; 150 μg i.p.) an agent that competes for occupancy of α-adrenergic receptors; propranolol (Sigma; 150 μg, i.p.; 30 μg, i.c.v.), a nonspecific competitive antagonist for β-adrenergic receptors.
as §1

[6] = Lipton and Catania, Immunol. Today 1997; cited from earlier work

Substance	anti-inflammatory activity (inhibition of paw edema) ([1]; between 1 and 4 hours)	decrease in paw inflammation ([1]; first hour after carrageenan injection)	cAMP accumulation [2]	concentration of strongest effect on cAMP accumulation [2] [µM]	effect on carrageenan-induced paw swelling ([3]; given intraperitoneally)	effect on carrageenan-induced paw swelling ([3]; given intraperitoneally, listed as tripeptide)	transcription levels (mRNA) for TNF-α and iNOS [4]	inhibition of ear edema by α-MSH ([5]; 4 hr) [%]	inhibition of ear edema by α-MSH ([5]; 6 hr) [%]	cAMP accumulation in conjunction with LPS and IFN-γ ([2]; peptide 10 μM with LPS+IFN-γ, forskolin 100 μM as comparison)	inhibition of inflammation induced in the hind paw ([3]; 3 hr) [%]	inhibition of inflammation induced in the hind paw ([3]; 4.5 hr) [%]	effect on carrageenan-induced paw swelling ([3]; centrally injected)	toxicity [6]
Ac-Lys-Pro-Val-NH2 [α-MSH(11-13)]	nearly identical anti-inflammatory activity	no such reduction was observed	increased cAMP accumulation	50	even more effective at reducing swelling	marked inhibitory effect on inflammation	decrease in transcription levels	–	–	–	–	–	–	–
SYSMEHFRWGKPV [α-MSH(1-13)]	–	–	increased cAMP accumulation	10	significant, although smaller, inhibitory effect	–	decrease in transcription levels	36	32	more effective of the two	57	29	had no effect on paw swelling	very low toxicity
